One may read the Kb as the affinity of an antagonist, worked out from how it opposes an agonist.

Drawing on patent US10988474B2, “Compounds acting at multiple prostaglandin receptors giving a general anti-inflammatory response” (ALLERGAN, INC., priority 2011, dated 2021), this text covers Kb for 16 compounds.

Common to all, as to format: cell-based
Test [1] addresses T1, human prostanoid IP receptor (Homo sapiens, UniProt P43119).
T1 construct: expressed in transfected cells
The experiment in a line: FLIPR Ca2+ signaling PG antagonist assay, IP stable cell line. Particulars: HEK-293 EBNA cells, human recombinant IP, no exogenous G-protein; standard agonist Cicaprost. The protocol: (§1) The above compounds were tested for PG antagonist activity as follows using human recombinant prostanoid receptor (DP1, EP1-4, FP, IP and TP) stable cell lines: In order to measure the response of Gs and Gi coupled prostanoid receptors as a Ca^2+ signal, chimeric G protein cDNAs were used. Stable cell lines over-expressing human prostanoid DP1, EP1-4, FP, IP, and TP receptors were established as follows:
(§2) Briefly, human prostanoid DP1, EP2, and EP4 receptor cDNAs were co-transfected with chimeric Gqs cDNA containing a haemagglutanin (HA) epitope; human prostanoid EP3 receptors were co-transfected with chimeric Gqi-HA; human EP1, FP, IP, and TP receptor cDNAs were expressed with no exogenous G-proteins. Gqs and Gqi chimeric cDNAs (Molecular Devices, Sunnyvale, Calif., U.S.A.), as well as cDNAs of prostanoid receptors, were cloned into a pCEP4 vector with a hygromycin B selection marker. Transfection into HEK-293 EBNA (Epstein-Barr virus nuclear antigen) cells was achieved by the FuGENE 6 transfection Reagent (Roche Applied Science, Indianapolis, Ind., USA). Stable transfectants were selected according to hygromycin resistance. Because Gqs and Gqi contained an HA epitope, G-protein expression was detected by Western blotting analysis using anti-mouse HA monoclonal antibody and horseradish peroxidase (HRP)-conjugated secondary antibody, while functional expression of prostanoid receptors was detected by FLIPR screening (Matias et al., 2004). These stable cell lines were validated using previously published antagonists at 10 μM against serial dilutions of standard agonists by FLIPR functional assays for Ca^2+ Signaling (as described below).
(§3) Ca^2+ signaling studies were performed using a FLIPR TETRA system (Molecular Devices, Sunnyvale, Calif., USA) in the 384-format. This is a high-throughput instrument for cell-based assays to monitor Ca^2+ signaling associated with GPCRs and ion channels. Cells were seeded at a density of 5×10^4 cells/well in BioCoat poly-D-lysine coated, black wall, clear bottom 384-well plates (BD Biosciences, Franklin lakes, NJ, USA) and allowed to attach overnight in an incubator at 37° C. The cells were then washed twice with HBSS-HEPES buffer (Hanks' balanced salt solution without bicarbonate and phenol red, 20 mM HEPES, pH 7.4) using an ELx405 Select CW Microplate Washer (BioTek, Winooski, Vt., USA). After 60 min of dye-loading in the dark using the Ca^2+-sensitive dye Fluo-4AM (Invitrogen, Carlsbad, Calif., USA), at a final concentration of 2×10^−6M, the plates were washed 4 times with HBSS-HEPES buffer to remove excess dye and leaving 50 μl of buffer in each well. The plates were then placed in the FLIPR TETRA instrument and allowed to equilibrate at 37° C. Compounds were added in a 25 μl volume to each well to give final concentrations of 0.1 μM, 0.3 μM, 1 μM, 3 μM, 10 μM, and 30 μM; or 0.067 μM, 0.1 μM, 0.2 μM, 0.3 μM, 0.67 μM, and 1 μM for cells over-expressing TP receptors. After 4.5 minutes, a 7-point serial dilution of the standard agonist for the corresponding receptor, in a 25 μl volume was injected at the final concentrations from 10^−11M to 10^−5M in 10-fold serial dilution increments for cells expressing human recombinant DP1, EP1, EP2, EP3, EP4, FP, and IP receptors. The dose range for the standard agonist for human recombinant TP receptors was from 10^−12M to 10^−6M. HBSS-HEPES buffer was used as the negative control for the standard agonists. Cells were excited with LED (light emitting diode) excitation at 470-495 nm and emission was measured through an emission filter at 515-575 nm. Assay plates were read for 3.5 minutes using the FLIPR^TETRA. The peak increase in fluorescence intensity was recorded for each well. On each plate, negative controls, dose response of positive controls, and co-treatments of antagonist-agonist for each dose were in triplicates. Standard agonists were as follows: DP=BW 245C, EP1-EP4=PGE2, FP=17-phenyl-PGF2α, IP=Cicaprost, and TP=U-46619. […]

In test [2] the target is T2, human prostanoid EP1 receptor (Homo sapiens, UniProt P34995).
T2 construct: expressed in transfected cells
T2 sequence (P34995 1-402): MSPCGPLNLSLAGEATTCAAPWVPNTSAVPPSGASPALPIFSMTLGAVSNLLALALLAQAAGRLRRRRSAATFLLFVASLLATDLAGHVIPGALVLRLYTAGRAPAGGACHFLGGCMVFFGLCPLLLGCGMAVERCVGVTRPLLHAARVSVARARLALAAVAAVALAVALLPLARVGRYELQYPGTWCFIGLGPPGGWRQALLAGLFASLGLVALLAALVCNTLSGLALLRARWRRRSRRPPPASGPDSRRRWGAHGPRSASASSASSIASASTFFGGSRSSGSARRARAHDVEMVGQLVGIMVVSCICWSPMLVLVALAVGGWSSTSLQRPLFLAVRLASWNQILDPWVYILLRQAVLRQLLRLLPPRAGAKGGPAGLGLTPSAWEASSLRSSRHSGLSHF
Briefly: FLIPR Ca2+ signaling PG antagonist assay, EP1 stable cell line. As to conditions: HEK-293 EBNA cells, human recombinant EP1, no exogenous G-protein; standard agonist PGE2. The protocol:
as §1, §2, §3

Test [3] deals with T3, human prostanoid EP3 receptor (Homo sapiens, UniProt P43115).
T3 construct: expressed in transfected cells
T3 sequence (P43115 1-390): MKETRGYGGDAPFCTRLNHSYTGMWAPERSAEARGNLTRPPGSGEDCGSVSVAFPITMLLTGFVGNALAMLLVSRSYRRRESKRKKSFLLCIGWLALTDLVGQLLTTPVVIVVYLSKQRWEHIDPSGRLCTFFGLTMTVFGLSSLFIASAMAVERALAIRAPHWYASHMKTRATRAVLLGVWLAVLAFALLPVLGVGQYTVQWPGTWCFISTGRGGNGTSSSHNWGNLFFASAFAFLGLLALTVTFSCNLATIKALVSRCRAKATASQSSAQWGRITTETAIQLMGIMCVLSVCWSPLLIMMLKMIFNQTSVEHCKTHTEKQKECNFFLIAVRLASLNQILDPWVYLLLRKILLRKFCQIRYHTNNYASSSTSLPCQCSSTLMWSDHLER
The experiment in a line: FLIPR Ca2+ signaling PG antagonist assay, EP3 stable cell line. Particulars: HEK-293 EBNA cells, human recombinant EP3 with chimeric Gqi; standard agonist PGE2. The protocol: as §1, §2, §3

The target of test [4] is T4, human prostanoid EP4 receptor (Homo sapiens, UniProt P35408).
T4 construct: expressed in transfected cells
T4 sequence (P35408 whole entry): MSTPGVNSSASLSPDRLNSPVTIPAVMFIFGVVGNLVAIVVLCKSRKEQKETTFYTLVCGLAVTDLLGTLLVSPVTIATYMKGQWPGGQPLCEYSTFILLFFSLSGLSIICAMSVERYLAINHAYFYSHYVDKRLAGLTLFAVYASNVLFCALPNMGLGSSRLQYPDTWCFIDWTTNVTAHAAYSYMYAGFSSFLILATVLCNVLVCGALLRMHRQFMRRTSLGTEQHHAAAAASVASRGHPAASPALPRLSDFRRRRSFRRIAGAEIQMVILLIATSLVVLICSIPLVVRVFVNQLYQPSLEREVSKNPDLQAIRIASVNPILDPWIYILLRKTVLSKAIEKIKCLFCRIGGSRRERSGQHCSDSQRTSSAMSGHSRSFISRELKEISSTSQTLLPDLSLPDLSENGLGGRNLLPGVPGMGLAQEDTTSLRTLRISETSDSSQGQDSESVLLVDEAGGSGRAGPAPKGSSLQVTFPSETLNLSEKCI
The experiment in a line: FLIPR Ca2+ signaling PG antagonist assay, EP4 stable cell line. As to conditions: HEK-293 EBNA cells, human recombinant EP4 with chimeric Gqs; standard agonist PGE2. The protocol: as §1, §2, §3

Test [5] has as its target T5, human prostanoid EP2 receptor (Homo sapiens, UniProt P43116).
T5 construct: expressed in transfected cells
The experiment in a line: FLIPR Ca2+ signaling PG antagonist assay, EP2 stable cell line. As to conditions: HEK-293 EBNA cells, human recombinant EP2 with chimeric Gqs; standard agonist PGE2. The protocol: as §1, §2, §3

T5 sequence (P43116 whole entry): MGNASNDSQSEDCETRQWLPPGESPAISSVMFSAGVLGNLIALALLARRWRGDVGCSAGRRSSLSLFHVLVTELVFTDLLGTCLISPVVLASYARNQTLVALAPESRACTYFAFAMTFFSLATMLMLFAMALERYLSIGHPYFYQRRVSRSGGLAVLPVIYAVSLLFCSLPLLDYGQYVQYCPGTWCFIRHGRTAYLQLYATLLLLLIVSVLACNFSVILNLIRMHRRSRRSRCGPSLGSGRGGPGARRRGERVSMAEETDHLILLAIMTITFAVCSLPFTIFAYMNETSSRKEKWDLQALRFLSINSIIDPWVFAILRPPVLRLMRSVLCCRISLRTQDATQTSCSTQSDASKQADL
T1 sequence (P43119 whole entry): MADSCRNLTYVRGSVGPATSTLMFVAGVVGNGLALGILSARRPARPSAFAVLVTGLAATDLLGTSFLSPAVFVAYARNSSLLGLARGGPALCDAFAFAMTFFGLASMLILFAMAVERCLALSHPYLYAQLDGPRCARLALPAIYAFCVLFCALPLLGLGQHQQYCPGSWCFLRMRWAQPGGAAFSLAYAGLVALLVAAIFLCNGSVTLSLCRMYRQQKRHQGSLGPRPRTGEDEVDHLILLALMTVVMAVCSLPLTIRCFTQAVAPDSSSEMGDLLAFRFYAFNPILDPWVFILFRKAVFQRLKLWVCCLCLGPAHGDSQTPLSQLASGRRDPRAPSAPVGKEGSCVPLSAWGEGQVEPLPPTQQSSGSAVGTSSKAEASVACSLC

Consider `CCC(CC)COc1ccc(Cl)cc1Cn1ccc2cc(C(=O)O)ccc21` [Example 1, 1-[5-Chloro-2-(2-Ethyl-Butoxy)-Benzyl]-1H-Indole-5-Carboxylic Acid], for which the Kb in test [1] came out at 2200 nM; in test [2], 180 nM; in test [3], 5.2 µM; in test [4], 70 nM; in test [5], 8.7 µM.
On to `CCC(CC)COc1ccc(Cl)cc1Cn1ncc2cc(C(=O)O)ccc21` [Example 2, 1-[5-Chloro-2-(2-Ethyl-Butoxy)-Benzyl]-1H-Indazole-5-Carboxylic ACID], for which the Kb worked out at 1100 nM in test [1]; 140 nM in test [2]; 1.1 µM in test [3]; 20 nM in test [4]; 2.9 µM in test [5].
In the same order, the values of `CC(C)COc1ccc(Br)cc1Cn1ncc2cc(C(=O)O)ccc21` [Example 4] are 800 nM, 6 nM, 1.5 µM, 25 nM and 1.8 µM.
In the same order, the values of `CCC(CC)COc1ccc(Cl)cc1Cn1ncc2ccc(C(=O)O)cc21` [Example 6] are at least 10000 nM, at least 10000 nM, at least 10 µM, at least 10000 nM and at least 10 µM.
In the same order, the values of `CC(C)COc1ccc(Br)cc1Cn1ncc2c(C(=O)O)cccc21` [Example 7, 1-(5-Bromo-2-Isobutoxy-Benzyl)-1H-Indazole-4-Carboxylic Acid] are 1300 nM, 45 nM, at least 10 µM, 1800 nM and 4.4 µM.
As to `O=C(O)c1ccc2c(cnn2Cc2cc(Cl)ccc2OCc2ccccc2)c1` [Example 8, 1-(2-Benzyloxy-5-Chloro-Benzyl)-1H-Indazole-5-Carboxylic Acid], the Kb in test [1] is 2800 nM; in test [2], 220 nM; in test [3] it was at least 10 µM; in test [4], 1300 nM; in test [5] it was 5 µM.
In the same order, the values of `O=C(O)c1ccc2c(cnn2Cc2cc(Cl)ccc2OCc2ccc(Cl)cc2)c1` [Example 9, 1-[5-Chloro-2-(4-Chloro-Benzyloxy)-Benzyl]-1H-Indazole-5-Carboxylic Acid] are 1350 nM, 90 nM, 4.9 µM, 3000 nM and 3.2 µM.
On to `O=C(O)c1ccc2c(cnn2Cc2cc(Cl)ccc2OCC2CCCC2)c1` [Example 10, 1-(5-Chloro-2-Cyclopentylmethoxy-Benzyl)-1H-Indazole-5-Carboxylic Acid], for which the Kb came out at 400 nM in test [1]; 50 nM in test [2]; 1.1 µM in test [3]; 20 nM in test [4]; 0.5 µM in test [5].
In the same order, the values of `O=C(O)c1ccc2c(cnn2Cc2cc(Cl)ccc2OCC2CC2)c1` [Example 11, 1-(5-Chloro-2-Cyclopropylmethoxy-Benzyl)-1H-Indazole-5-Carboxylic Acid] are 5500 nM, 120 nM, 6.5 µM, 110 nM and 2 µM.
In the same order, the values of `O=C(O)c1ccc2c(cnn2Cc2cc(Br)ccc2OCc2ccccc2)c1` [Example 12, 1-(2-Benzyloxy-5-Bromo-Benzyl)-1H-Indazole-5-Carboxylic Acid] are 5000 nM, 360 nM, at least 10 µM, 1150 nM and 7.9 µM.
In the same order, the values of `O=C(O)c1ccc2c(cnn2Cc2cc(Br)ccc2OCc2ccc(Cl)cc2)c1` [Example 13, 1-[5-Bromo-2-(4-Chloro-Benzyloxy)-Benzyl]-1H-Indazole-5-Carboxylic Acid] are 600 nM, 50 nM, 8.5 µM, 2700 nM and 1.9 µM.
`O=C(O)c1ccc2c(cnn2Cc2cc(Br)ccc2OCC2CCCC2)c1` [Example 14, 1-(5-Bromo-2-Cyclopentylmethoxy-Benzyl)-1H-Indazole-5-Carboxylic Acid]: the Kb in test [1] was determined as 340 nM; in test [2] it was 20 nM; in test [3], 1.5 µM; in test [4], 15 nM; in test [5] it was 0.4 µM.
In the same order, the values of `O=C(O)c1ccc2c(cnn2Cc2cc(Br)ccc2OCC2CC2)c1` [Example 15, 1-(5-Bromo-2-Cyclopropylmethoxy-Benzyl)-1H-Indazole-5-Carboxylic Acid] are 1800 nM, 190 nM, 8.4 µM, 200 nM and 3.3 µM.
In the same order, the values of `CC(C)COc1ccc(Cl)cc1Cn1cc2cc(C(=O)O)ccc2n1` [Example 16, 2-(5-Chloro-2-Isobutoxy-Benzyl)-2H-Indazole-5-Carboxylic Acid] are 6600 nM, 90 nM, 4 µM, 600 nM and at least 10 µM.
Consider `CC(C)COc1ccc(Br)cc1Cn1cc2cc(C(=O)O)ccc2n1` [Example 17, 2-(5-Bromo-2-Isobutoxy-Benzyl)-2H-Indazole-5-Carboxylic Acid], for which the Kb in test [1] is at least 10000 nM; in test [2], 40 nM; in test [3], at least 10 µM; in test [4], 600 nM; in test [5], at least 10 µM.
For the compound `CC(C)COc1ccc(C(F)(F)F)cc1Cn1ncc2cc(C(=O)O)ccc21` [Example 18], the Kb in test [1] is 6500 nM; in test [2], 40 nM; in test [3] it was 4 µM; in test [4] it was 60 nM; in test [5], at least 10 µM.
